The record followed here is PubChem BioAssay (NCI).

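Where inhibition never reached the appropriate level, the endpoint shown equals the highest concentration tested. Otherwise, values were interpolated linearly from a five-concentration, 48-hour dose response in 96-well plates. GI50 = concentration required for 50% inhibition of growth. Definition used: TGI = concentration required for complete inhibition of growth.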

Among the test systems are ACHN renal; BT-549 breast; COLO 205 colon; HCT-15 colon; IGROV1 ovarian; NCI-H226 lung; NCI-H460 lung; SK-MEL-2 melanoma; SN12C renal; SNB-75 CNS.
Holding throughout (experiment): inhibition of tumour cell growth, NCI panel, 48 h

As to `Cn1c(Cl)c(/C=C2/C(=O)Nc3ccccc32)c2ccccc21`, the GI50 is 1.15 µM in the experiment with ACHN renal; 0.243 µM in the experiment on BT-549 breast; 0.705 µM with COLO 205 colon; 0.16 µM in the experiment with HCT-15 colon; 2.12 µM in the experiment on IGROV1 ovarian; 1.83 µM in the experiment with NCI-H226 lung. Moreover, the GI50 with NCI-H460 lung was 0.727 µM; in the experiment on SK-MEL-2 melanoma it was 2.32 µM; in the experiment with SN12C renal, 1.87 µM; in the experiment on SNB-75 CNS it was 3.28 µM. The TGI with ACHN renal was 18.8 µM; in the experiment on BT-549 breast it was 3.87 µM; in the experiment on COLO 205 colon it was 6.64 µM; with HCT-15 colon, 11.9 µM; in the experiment on IGROV1 ovarian, greater than 100 µM; with NCI-H226 lung it was 21.9 µM. Moreover, the TGI in the experiment on NCI-H460 lung was greater than 32.2 µM; in the experiment with SK-MEL-2 melanoma it was 26.1 µM; in the experiment on SN12C renal, 23.7 µM; in the experiment with SNB-75 CNS, 23 µM.
Take `[N-]=[N+]=NCCCn1c2c(c3ccc([N+](=O)[O-])cc3c1=O)C(=O)c1ccccc1-2`: the GI50 in the experiment with ACHN renal was 9.14 µM; in the experiment with BT-549 breast, 27.4 µM; in the experiment with HCT-15 colon it was 75.5 µM; in the experiment with IGROV1 ovarian, greater than 100 µM; with NCI-H460 lung it was 8.65 µM; in the experiment with SK-MEL-2 melanoma, greater than 100 µM. Also, the GI50 in the experiment on SN12C renal is 72.5 µM. The TGI in the experiment with ACHN renal, with BT-549 breast, with HCT-15 colon, in the experiment on IGROV1 ovarian, in the experiment on NCI-H460 lung and in the experiment with SK-MEL-2 melanoma was greater than 100 µM throughout. Besides, the TGI with SN12C renal is greater than 100 µM.
As to `C=C1c2c(C)nn(-c3ccc(C#CCOC4OC(CO)C(O)C(O)C4O)cc3)c2N(C)C23C[C@H]1C1(C)c4c(C)nn(-c5ccc(C#CCOC6OC(CO)C(O)C(O)C6O)cc5)c4N(C)C(C)(C[C@H]12)C3` (stereo not given in full), the GI50 is 2.42 µM with ACHN renal; 1.3 µM in the experiment with BT-549 breast; 1.47 µM with COLO 205 colon; 1.56 µM with IGROV1 ovarian; 1.62 µM in the experiment with NCI-H226 lung; 1.69 µM in the experiment with NCI-H460 lung. For the same molecule, the results for the GI50 in the experiment with SK-MEL-2 melanoma and in the experiment with SN12C renal were 1.76 µM and 1.38 µM, respectively. For the same molecule, the TGI amounted to 10.6 µM with ACHN renal; 2.97 µM with BT-549 breast; 2.88 µM in the experiment with COLO 205 colon; 3.95 µM in the experiment on IGROV1 ovarian; 3.7 µM in the experiment on NCI-H226 lung; 3.85 µM with NCI-H460 lung. The figures for the TGI in the experiment on SK-MEL-2 melanoma and in the experiment on SN12C renal were 3.39 µM and 3.72 µM, respectively.
Take `Nc1ncc(-c2cnn(C3CCNCC3)c2)cc1-c1nc2cc(Cl)ccc2o1`: the GI50 in the experiment on ACHN renal was 1.65 µM; in the experiment on BT-549 breast, 1.61 µM; in the experiment on COLO 205 colon, 1.41 µM; in the experiment on HCT-15 colon, 0.495 µM; with IGROV1 ovarian, 1.04 µM; in the experiment with NCI-H460 lung, 1.68 µM. The GI50 in the experiment on SN12C renal was 1.24 µM; in the experiment on SNB-75 CNS it was 1.65 µM. The TGI was determined as 3.08 µM in the experiment on ACHN renal; 3.14 µM with BT-549 breast; 2.91 µM in the experiment on COLO 205 colon; 1.71 µM in the experiment with HCT-15 colon; 2.43 µM with IGROV1 ovarian; 3.28 µM in the experiment on NCI-H460 lung. In addition, the TGI is 2.71 µM in the experiment with SN12C renal and 3.06 µM in the experiment on SNB-75 CNS.
For `N/N=C\c1c2ccccc2c(=O)n2c1oc1ccccc12`, the GI50 is 16.3 µM with ACHN renal; 1.42 µM in the experiment on BT-549 breast; 18.3 µM in the experiment on COLO 205 colon; 17.3 µM with HCT-15 colon; 14.6 µM in the experiment with NCI-H226 lung; 5.47 µM with NCI-H460 lung. In addition, the GI50 was 26.5 µM in the experiment with SK-MEL-2 melanoma, 14.4 µM in the experiment with SN12C renal and 11.5 µM with SNB-75 CNS. The TGI was determined as 29.9 µM in the experiment on ACHN renal; 17 µM in the experiment with BT-549 breast; 34.8 µM with COLO 205 colon; 34.6 µM in the experiment on HCT-15 colon; 33.9 µM in the experiment with NCI-H226 lung; 18.4 µM in the experiment on NCI-H460 lung. Also, the TGI is greater than 100 µM with SK-MEL-2 melanoma, 29.7 µM in the experiment with SN12C renal and 31 µM in the experiment with SNB-75 CNS.
Take `C=C(C)[C@@H]1CC[C@]2(COCCCN)CC[C@]3(C)[C@H](CC[C@@H]4[C@@](C)(CCCNCCCN)[C@H](C(=C)C)CC[C@]43C)[C@@H]12`: the GI50 was 1.75 µM in the experiment on ACHN renal; 10.6 µM in the experiment with BT-549 breast; 1.78 µM with COLO 205 colon; 1.3 µM in the experiment with HCT-15 colon; 1.49 µM with IGROV1 ovarian; 1.8 µM in the experiment with NCI-H460 lung. The GI50 in the experiment with SK-MEL-2 melanoma was 1.89 µM; in the experiment with SN12C renal it was 1.58 µM. The TGI with ACHN renal was determined as 3.13 µM; in the experiment on BT-549 breast, 29.6 µM; in the experiment on COLO 205 colon, 3.48 µM; with HCT-15 colon it was 2.63 µM; in the experiment with IGROV1 ovarian, 2.9 µM; with NCI-H460 lung it was 3.44 µM. Further, the TGI was 3.71 µM in the experiment with SK-MEL-2 melanoma and 2.96 µM in the experiment on SN12C renal.
As to `O=c1[nH]c2ccccc2cc1-c1nc2ccc(Cl)cc2[nH]1`, the GI50 with ACHN renal was 2.45 µM; with BT-549 breast, 2.99 µM; in the experiment with COLO 205 colon, 3.25 µM; in the experiment with HCT-15 colon, 2.91 µM; in the experiment with IGROV1 ovarian it was 1.36 µM; in the experiment with NCI-H226 lung, 2.71 µM. The GI50 with NCI-H460 lung is 2.61 µM; in the experiment with SN12C renal it was 3.17 µM; in the experiment with SNB-75 CNS, 2.98 µM. Moreover, the TGI in the experiment with ACHN renal, with BT-549 breast, in the experiment on COLO 205 colon, in the experiment on HCT-15 colon, in the experiment on IGROV1 ovarian and with NCI-H226 lung was greater than 100 µM throughout. For the same molecule, the TGI with NCI-H460 lung, in the experiment on SN12C renal and in the experiment on SNB-75 CNS was greater than 100 µM in each case.
In the case of `CCCOC(=O)N[C@H]1CCc2c(Cl)c(OC)c(OC)c(OC)c2-c2ccc(SC)c(=O)cc21`, the GI50 with ACHN renal is less than 0.01 µM; in the experiment on BT-549 breast it was less than 0.01 µM; in the experiment on HCT-15 colon it was less than 0.01 µM; in the experiment with IGROV1 ovarian it was less than 0.01 µM; in the experiment on NCI-H226 lung it was less than 0.01 µM; with NCI-H460 lung, less than 0.0112 µM. Further, the GI50 in the experiment with SK-MEL-2 melanoma is 1.88 µM; with SN12C renal it was less than 0.0123 µM; in the experiment with SNB-75 CNS it was less than 0.01 µM. Also, the TGI with ACHN renal is 23.6 µM; in the experiment on BT-549 breast, 6.01 µM; in the experiment with HCT-15 colon, 16.6 µM; in the experiment on IGROV1 ovarian, greater than 65.6 µM; in the experiment on NCI-H226 lung, 12.5 µM; in the experiment with NCI-H460 lung, 0.944 µM. For the same molecule, the TGI in the experiment with SK-MEL-2 melanoma turned out to be 29.9 µM; with SN12C renal, 13.6 µM; in the experiment on SNB-75 CNS, 14.5 µM.
Turning to `O=C(Nc1ccc(Cl)cc1)C1C(=O)C(=O)N(c2ccc(Cl)cc2)C1=O` (stereo not given), the TGI with ACHN renal, with COLO 205 colon, with HCT-15 colon, in the experiment on IGROV1 ovarian, in the experiment with NCI-H226 lung and in the experiment with NCI-H460 lung was greater than 100 µM throughout. The TGI in the experiment on SK-MEL-2 melanoma, in the experiment with SN12C renal and in the experiment on SNB-75 CNS was greater than 100 µM in each case.
